Source: paper PMC3607106 (Biochemistry, 2009)

Experiments:
[1] = target: 2PITC-modified MIF (human MIF covalently modified at Pro1 by 2-piperidinoethyl isothiocyanate) (human) (UniProt P14174); assay: SEC-MALS
MIF [2] = target: T1, MIF (Homo sapiens, UniProt P14174); assay: MIF tautomerase activity; type: biochemical
T1 sequence (P14174 2-115 limits assumed): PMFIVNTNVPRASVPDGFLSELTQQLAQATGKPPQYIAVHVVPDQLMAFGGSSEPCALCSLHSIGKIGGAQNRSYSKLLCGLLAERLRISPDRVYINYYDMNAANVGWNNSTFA

MIF [3] = target: T1, MIF; assay: Covalent modification of MIF by MALDI-TOF MS and tryptic peptide mapping; type: binding; settings: for site of covalent modification of MIF: trypsin digestion, peptide mapping, MS/MS, 10 μM
murine MIF = murine MIF (Mus musculus, UniProt P34884); assay: MIF tautomerase activity; type: biochemical; settings: read-out: inhibition of the tautomerase activity
ubiquitin = ubiquitin (Homo sapiens, UniProt P0CG47); assay: BITC modification specificity by MALDI-TOF; type: binding; settings: equimolar, 1 h or overnight at RT
MIF [4] = assay: Covalent modification of MIF by MALDI-TOF MS and tryptic peptide mapping; type: binding, human; settings: 10 μM BITC, 60 min
lysozyme = assay: BITC modification specificity by MALDI-TOF; type: binding; settings: equimolar, 1 h or overnight at RT
HeLa cells = assay: Phospho Akt activation by MIF; type: cell-based, human
MIF [5] = target: T1, MIF; assay: Sedimentation velocity analytical ultracentrifugation of MIF; settings: MIF 10 μM preincubated with 6 μM BITC 1 h RT
human macrophages = assay: Glucocorticoid overriding assay; type: cell-based
α-synuclein = α-synuclein (Homo sapiens, UniProt P37840); assay: BITC modification specificity by MALDI-TOF; type: binding; settings: equimolar, 1 h or overnight at RT
[6] = target: AITC-modified MIF (human MIF covalently modified at Pro1 by allyl isothiocyanate) (human) (UniProt P14174); assay: SEC-MALS
[7] = target: BITC-modified MIF (human MIF covalently modified at Pro1 by benzyl isothiocyanate) (human) (UniProt P14174); assay: SEC-MALS
[8] = target: BITC-modified MIF (human MIF covalently modified at Pro1 by benzyl isothiocyanate) (human) (UniProt P14174); assay: AUC
[9] = target: EITC-modified MIF (human MIF covalently modified at Pro1 by ethyl isothiocyanate) (human) (UniProt P14174); assay: SEC-MALS
[10] = target: MITC-modified MIF (human MIF covalently modified at Pro1 by methallyl isothiocyanate) (human) (UniProt P14174); assay: SEC-MALS
[11] = target: human macrophage migration inhibitory factor (MIF), unmodified (human) (UniProt P14174); assay: SEC-MALS
[12] = target: human macrophage migration inhibitory factor (MIF), unmodified (human) (UniProt P14174); assay: AUC

2PITC-modified MIF (human MIF covalently modified at Pro1 by 2-piperidinoethyl isothiocyanate) (from UniProt P14174 1-115) (natural protein)
stoichiometry N [1]: 3

S=C=NCCN1CCCCC1 [2PITC, 2-Piperidinoethyl isothiocyanate]
IC50 (MIF [2]): 3.09 µM | site of covalent modification of MIF (MIF [3]): shown to modify MIF at the N-terminal Pro residue

C=CCN=C=S [AITC, allyl isothiocyamate]
site of covalent modification of MIF (MIF [3]): shown to modify MIF at the N-terminal Pro residue

S=C=NCc1ccccc1 [BITC, Benzyl isothiocyanate]
inhibition at 10 µM (murine MIF): 100% | modification of ubiquitin (MS) (ubiquitin): No modification was detected | inhibition at 10 µM (MIF [2]; read-out: inhibition of the tautomerase activity): 100% | formation of BITC-MIF adduct (MALDI-TOF) (MIF [3]; concentrations > 10 μM, MIF 15 μM, Tris 50 mM pH 7.4, 60 min): complete conversion to the singly modified form of MIF | site of covalent modification of MIF (MIF [3]): modification takes place at the N-terminal proline residue | modification of inactive MIF proteins (MIF [4]; R73AΔ5, R73AΔ10 or P107): no modification was observed | modification of enzymatically active forms of MIF (MIF [4]; Wt, N110C and R73A): total modification | modification of lysozyme (MS) (lysozyme): No modification was detected | MIF-induced Akt phosphorylation (HeLa cells; BITC 1 and 10 μM, MIF 50 ng/mL, 2 h): inhibited MIF-induced Akt phosphorylation | baseline Akt phosphorylation (HeLa cells; BITC alone): did not modify baseline Akt phosphorylation | quaternary structure distribution of MIF (sedimentation velocity) (MIF [5]): sedimented predominantly as a single species | MIF-mediated dexamethasone overriding (human macrophages; BITC 10 μM, MIF 100 ng/mL, Dex 100 nM, LPS 100 ng/mL, 4 h): abrogated MIF-mediated dexamethasone overriding | TNF production (human macrophages; BITC 10 μM, LPS-stimulated, compared with dexamethasone): decreased TNF production even more potently than dexamethasone | macrophage viability (human macrophages; culture conditions used to induce TNF production (data not shown)): did not alter macrophage viability | modification of α-synuclein (MS) (α-synuclein): No modification was detected

S=C=NC1CC1 [CPITC, cyclopropyl isothiocyanate]
site of covalent modification of MIF (MIF [3]): shown to modify MIF at the N-terminal Pro residue

CCN=C=S [EITC, ethyl isothiocyanate]
site of covalent modification of MIF (MIF [3]): shown to modify MIF at the N-terminal Pro residue

C=C(C)CN=C=S [MITC, methallyl Isothiocyanate]
site of covalent modification of MIF (MIF [3]): shown to modify MIF at the N-terminal Pro residue

C[C@@H]1C[C@H]2[C@@H]3CCC4=CC(=O)C=C[C@]4(C)[C@@]3(F)[C@@H](O)C[C@]2(C)[C@@]1(O)C(=O)CO [dexamethasone, reference compound]
TNF production by LPS-stimulated monocytes (human macrophages; dexamethasone 100 nM): inhibited TNF production

AITC-modified MIF (human MIF covalently modified at Pro1 by allyl isothiocyanate) (from UniProt P14174 1-115) (natural protein)
stoichiometry N [6]: 3

BITC-modified MIF (human MIF covalently modified at Pro1 by benzyl isothiocyanate) (from UniProt P14174 1-115) (natural protein)
stoichiometry N [7]: 3 | stoichiometry N [8]: 3

EITC-modified MIF (human MIF covalently modified at Pro1 by ethyl isothiocyanate) (from UniProt P14174 1-115) (natural protein)
stoichiometry N [9]: 3

MITC-modified MIF (human MIF covalently modified at Pro1 by methallyl isothiocyanate) (from UniProt P14174 1-115) (natural protein)
stoichiometry N [10]: 3

human macrophage migration inhibitory factor (MIF), unmodified (from UniProt P14174 1-115) (natural protein)
stoichiometry N [11]: 3 | stoichiometry N [12]: 3
